Results: ChEMBL document CHEMBL5226370, “Selective Inhibition of Organic Cation Transporter 1 by Benzoylpaeoniflorin Attenuates Hepatic Lipid Accumulation through AMPK Activation” (J Nat Prod, 2023)
Calls of active or inactive are those of the source. No cut-off for these calls is given here.

What was measured:
[1] = system: HEK293; experiment: Cytotoxicity against HEK293 cells expressing OCT2 assessed as reduction in cell viability at 250 uM incubated for 12 hrs by resazurin dye based assay; format: toxicity; conditions: human, hek293, 12 h
[2] = target: T1, Solute carrier family 22 member 1 (Homo sapiens, UniProt O15245); experiment: Inhibition of OCT1(unknown origin)-mediated ASP+ uptake in HEK293 cells expressing OCT1 using ASP+ as substrate incubated for 5 mins; format: cell-based
T1 sequence (O15245 whole entry): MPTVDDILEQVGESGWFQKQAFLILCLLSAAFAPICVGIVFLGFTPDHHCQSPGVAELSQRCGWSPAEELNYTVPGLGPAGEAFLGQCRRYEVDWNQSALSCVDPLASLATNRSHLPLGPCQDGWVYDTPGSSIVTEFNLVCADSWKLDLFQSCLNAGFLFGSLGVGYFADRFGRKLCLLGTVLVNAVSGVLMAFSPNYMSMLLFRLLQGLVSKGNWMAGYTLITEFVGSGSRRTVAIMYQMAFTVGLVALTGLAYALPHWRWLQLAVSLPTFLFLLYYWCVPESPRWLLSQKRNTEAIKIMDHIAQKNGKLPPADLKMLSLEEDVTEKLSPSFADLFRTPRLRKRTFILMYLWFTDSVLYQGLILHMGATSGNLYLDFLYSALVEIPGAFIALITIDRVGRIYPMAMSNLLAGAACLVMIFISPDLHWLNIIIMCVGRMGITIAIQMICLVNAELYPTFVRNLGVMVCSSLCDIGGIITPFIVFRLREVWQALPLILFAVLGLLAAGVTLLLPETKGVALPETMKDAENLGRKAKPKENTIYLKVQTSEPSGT

[3] = system: HEK293; experiment: Cytotoxicity against HEK293 cells expressing OCT1 assessed as reduction in cell viability at 250 uM incubated for 12 hrs by resazurin dye based assay; format: toxicity; conditions: human, hek293, 12 h
[4] = target: T2, OCT1 (SLC22A1) (Homo sapiens, UniProt O15245); experiment: Inhibition of OCT1(unknown origin)-mediated ASP+ uptake in HEK293 cells expressing OCT1 using ASP+ as substrate at 50 uM incubated for 5 mins by fluorescence based microplate reader analysis relative to control; format: cell-based; conditions: HEK293 cells expressing OCT1, probe ASP+
T2 sequence (O15245 whole entry): T1 sequence (O15245 whole entry)

[5] = system: HEK293; experiment: Cytotoxicity against HEK293 cells harboring empty vector assessed as reduction in cell viability at 250 uM incubated for 12 hrs by resazurin dye based assay; format: toxicity; conditions: human, hek293, 12 h
[6] = target: T3, Solute carrier family 22 member 2 (Homo sapiens, UniProt O15244); experiment: Inhibition of OCT2(unknown origin)-mediated ASP+ uptake in HEK293 cells expressing OCT2 using ASP+ as substrate incubated for 5 mins; format: cell-based
T3 sequence (O15244 whole entry): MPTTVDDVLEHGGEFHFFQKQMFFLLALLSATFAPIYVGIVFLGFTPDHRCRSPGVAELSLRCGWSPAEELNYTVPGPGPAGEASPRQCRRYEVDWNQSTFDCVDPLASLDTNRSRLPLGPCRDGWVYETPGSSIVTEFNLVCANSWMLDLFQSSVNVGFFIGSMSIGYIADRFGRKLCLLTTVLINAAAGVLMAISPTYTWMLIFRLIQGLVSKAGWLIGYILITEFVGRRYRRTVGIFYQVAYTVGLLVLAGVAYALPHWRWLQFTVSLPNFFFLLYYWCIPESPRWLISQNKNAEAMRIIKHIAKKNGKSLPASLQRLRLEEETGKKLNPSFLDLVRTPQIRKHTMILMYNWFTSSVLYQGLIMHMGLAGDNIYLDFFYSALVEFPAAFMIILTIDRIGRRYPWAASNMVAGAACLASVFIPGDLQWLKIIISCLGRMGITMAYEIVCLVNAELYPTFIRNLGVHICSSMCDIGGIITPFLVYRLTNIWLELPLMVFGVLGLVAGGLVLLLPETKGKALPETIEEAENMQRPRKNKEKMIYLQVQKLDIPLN

[7] = system: HEK293; experiment: Selectivity index, ratio of IC50 for inhibition of OCT2(unknown origin)-mediated ASP+ uptake in HEK293 cells expressing OCT2 to IC50 for inhibition of OCT1(unknown origin)-mediated ASP+ uptake in HEK293 cells expressing OCT1; format: cell-based; conditions: Homo sapiens
[8] = system: L02; experiment: Inhibition of FFA-induced lipid accumulation in human L02 cells expressing OCT1 assessed as decrease in triglyceride level at 10 uM incubated for 24 hrs; format: functional, cell-based
[9] = Activation of AMPK signalling pathway in human L02 cells expressing OCT1 assessed as increase in AMPK phosphorylation at 2.5 to 10 uM incubated for 1 to 24 hrs by Western blot analysis; format: cell-based; conditions: filed as activator, dose 2.5-10 µM, time 1-24 hrs
[10] = system: L02; experiment: Inhibition of FFA-induced lipid accumulation in human L02 cells expressing OCT1 at 10 uM incubated for 24 hrs by Oil Red O staining based microscopic analysis; format: functional, cell-based
[11] = Activation of AMPK signalling pathway in human HepG2 cells expressing OCT1 assessed as decrease in FASN mRNA expression at 2.5 to 10 uM incubated for 1 to 24 hrs by qRT-PCR analysis; format: cell-based; conditions: filed as activator, dose 2.5-10 µM, time 1-24 hrs
[12] = Activation of AMPK signalling pathway in human L02 cells expressing OCT1 assessed as decrease in FASN mRNA expression at 2.5 to 10 uM incubated for 1 to 24 hrs by qRT-PCR analysis; format: cell-based; conditions: filed as activator, dose 2.5-10 µM, time 1-24 hrs
[13] = Activation of AMPK signalling pathway in human HepG2 cells expressing OCT1 assessed as decrease in ACC mRNA expression at 2.5 to 10 uM incubated for 1 to 24 hrs by qRT-PCR analysis; format: cell-based; conditions: filed as activator, dose 2.5-10 µM, time 1-24 hrs
[14] = system: HepG2; experiment: Inhibition of FFA-induced lipid accumulation in human HepG2 cells expressing OCT1 assessed as decrease in triglyceride level at 10 uM incubated for 24 hrs; format: functional, cell-based
[15] = Activation of AMPK signalling pathway in human L02 cells expressing OCT1 assessed as decrease in ACC mRNA expression at 2.5 to 10 uM incubated for 1 to 24 hrs by qRT-PCR analysis; format: cell-based; conditions: filed as activator, dose 2.5-10 µM, time 1-24 hrs
[16] = Activation of AMPK signalling pathway in human HepG2 cells expressing OCT1 assessed as increase in AMPK phosphorylation at 2.5 to 10 uM incubated for 1 to 24 hrs by Western blot analysis; format: cell-based; conditions: filed as activator, dose 2.5-10 µM, time 1-24 hrs
[17] = system: HepG2; experiment: Inhibition of FFA-induced lipid accumulation in human HepG2 cells expressing OCT1 at 10 uM incubated for 24 hrs by Oil Red O staining based microscopic analysis; format: functional, cell-based

Row | SMILES | IC50 [2] [µM] | inhibition at 5 min, 50 µM [4] [%] | IC50 [6] [µM] | Activity [1] | Activity [3] | Activity [5] | Ratio IC50 [7] | inhibition [8] | Activity [9] | inhibition [10] | Activity [11] | Activity [12] | Activity [13] | inhibition [14] | Activity [15] | Activity [16] | inhibition [17]
1 | COc1ccc(-c2oc3cc(OC)cc(OC)c3c(=O)c2OC)cc1 [TETRAMETHYLKAEMPFEROL] | 47 | > 50 | 39.5 | Non-Toxic | Non-Toxic | Non-Toxic | – | – | – | – | – | – | – | – | – | – | –
2 | O=c1cc(-c2ccc(O)cc2)oc2cc(O)cc(O)c12 [APIGENIN] | 38.9 | > 50 | 30.9 | Non-Toxic | Non-Toxic | Non-Toxic | – | – | – | – | – | – | – | – | – | – | –
3 | NC12CC3CC(CC(C3)C1)C2 [AMANTADINE] | 39.6 | – | 45.9 | – | – | – | 1.16 | – | – | – | – | – | – | – | – | – | –
4 | O=c1cc(-c2ccc(O)c(O)c2)oc2cc(O)cc(O)c12 [LUTEOLIN] | 46.1 | > 50 | 41 | Non-Toxic | Non-Toxic | Non-Toxic | – | – | – | – | – | – | – | – | – | – | –
5 | C[C@@H]1CC[C@@]2(OC1)O[C@H]1C[C@H]3[C@@H]4CC=C5C[C@@H](O)C[C@@H](O[C@@H]6O[C@H](C)[C@H](O)[C@H](O[C@@H]7OC[C@@H](O)[C@H](O)[C@H]7O)[C@H]6O[C@@H]6O[C@@H](C)[C@H](O)[C@@H](O)[C@H]6O)[C@]5(C)[C@H]4CC[C@]3(C)[C@H]1[C@@H]2C | 41.3 | > 50 | 19.1 | Non-Toxic | Non-Toxic | Non-Toxic | – | – | – | – | – | – | – | – | – | – | –
6 | CC(C)=CCc1cc(-c2cc(=O)c3c(O)cc(O)c(CC=C(C)C)c3o2)cc(O)c1O | 40.2 | > 50 | 33.1 | Non-Toxic | Non-Toxic | Non-Toxic | – | – | – | – | – | – | – | – | – | – | –
7 | COc1cc(O)c2c(c1)oc(=O)c1c3cc(O)c(O)cc3oc21 [WEDELOLACTONE] | 38.4 | > 50 | 17.3 | Non-Toxic | Non-Toxic | Non-Toxic | – | – | – | – | – | – | – | – | – | – | –
8 | C/C=C1\C2CC(=O)OC[C@@H](c3ccc(O)c(O)c3)OC[C@H]3O[C@@H](O[C@@H]1OC=C2C(=O)OC)[C@H](O)[C@@H](O)[C@@H]3O | 47.3 | > 50 | 1270 | Non-Toxic | Non-Toxic | Non-Toxic | – | – | – | – | – | – | – | – | – | – | –

These reach a lower IC50 [2]. Values come first.

Row | IC50 [2] [µM] | inhibition at 5 min, 50 µM [4] [%] | IC50 [6] [µM] | SMILES | Activity [1] | Activity [3] | Activity [5] | Ratio IC50 [7] | inhibition [8] | Activity [9] | inhibition [10] | Activity [11] | Activity [12] | Activity [13] | inhibition [14] | Activity [15] | Activity [16] | inhibition [17]
9 | 35.2 | > 50 | 69.5 | C[C@H]1O[C@@H](O[C@H]2CC[C@@]3(C)[C@@H](CC[C@]4(C)[C@@H]3C=CC3=C5CC(C)(C)CC[C@]5(CO)[C@@H](O)C[C@]34C)[C@]2(C)CO)[C@H](O)[C@@H](O[C@@H]2O[C@H](CO)[C@@H](O)[C@H](O)[C@H]2O)[C@H]1O | Non-Toxic | Non-Toxic | Non-Toxic | – | – | – | – | – | – | – | – | – | – | –
10 | 28 | – | 1620 | CNC(=C[N+](=O)[O-])NCCSCc1ccc(CN(C)C)o1 [RANITIDINE] | – | – | – | 39.6 | – | – | – | – | – | – | – | – | – | –
11 | 11.2 | > 50 | 56.5 | CC(C)=CCc1c(O)cc(O)c2c(=O)c(O[C@@H]3O[C@@H](C)[C@H](O)[C@@H](O)[C@H]3O[C@@H]3O[C@H](CO)[C@@H](O)[C@H](O)[C@H]3O)c(-c3ccc(O)cc3)oc12 | Non-Toxic | Non-Toxic | Non-Toxic | – | – | – | – | – | – | – | – | – | – | –
12 | 3.46 | > 50 | 4120 | C[C@@]12C[C@@]3(O)O[C@@H](O1)[C@]1(COC(=O)c4ccccc4)[C@H]3C[C@@]12O[C@@H]1O[C@H](COC(=O)c2ccccc2)[C@@H](O)[C@H](O)[C@H]1O | Non-Toxic | Non-Toxic | Non-Toxic | > 1000 | Active | Active | Active | Active | Active | Active | Active | Active | Active | Active
